The results in this text go back to EP0701444B1, “METHODS AND COMPOSITIONS FOR INDUCING SLEEP” (Purdue Pharma Ltd., priority 1993, dated 1994).

“Also recorded” adds a separate entry of the source. Where two headings read alike, the source gives them in different places.

The target in data set [1] is steroid site on the GABAA receptor-chloride channel complex. Description: [35S]TBPS binding assay. Further details: species or system Male Sprague-Dawley rats. As to conditions: inhibition of [35S]TBPS (2 nM) binding, rat cerebral cortex P2 membranes, 5 µM GABA, 90 minute incubation at 22°C. As to the method:
TBPS binding assays were conducted according to the following procedures, which are described in Gee, K.W.; Lawrence, L.J.; and Yamamura, H. I., "Modulation of the Chloride Ionophore by Benzodiazepine Receptor Ligands Influence of Gamma-Aminobutyric Acid and Ligand Efficacy," Molecular Pharmacology, 30:218, 1986. Male Sprague-Dawley rats (200-250g) were anesthetized with carbon dioxide and decapitated. The rats' brains were removed and the cerebral cortices were dissected and homogenized in 10 volumes of 0.32 M sucrose. Tissue was centrifuged at 1000 x g for 10 minutes and the resultant supernatant was centrifuged at 9,000 g for 20 minutes. The resultant pellet was resuspended in 10 volumes of 200 mM NaCl/50 mM Na-K phosphate pH 7.4 buffer (binding buffer) and then centrifuged at 9,000 x g for 10 minutes. This washing procedure was repeated twice and the final P2 pellet was resuspended in the binding buffer. For the binding assay, [^35S] TBPS (2 nM) was co-incubated in binding buffer with P2 membranes and 5 µM GABA and either 1) no additions to measure total binding; 2) 2 µM unlabeled TPBS to measure nonspecific binding; 3) the neurosteroid ranging in concentration from 1 Nm to 10µM. Following a 90 minute incubation at 22°C, the suspension was filtered and the bound radioactivity was determined by liquid scintillation counting. […] A lower IC50 indicates higher affinity for the steroid site on the GABAA receptor-chloride channel complex. Table 1 gives the IC50 values of representative steroids used in the present invention.

The test system of the next data set is rats. Description: Rat sleep-wake bioassay (EEG, EMG, locomotor activity, body temperature). Type of data set: in vivo, Wistar rats. The note with it: for LMA versus vehicle control: administered at CT-5, first hour after treatment. As to the method: Rat preparation, monitoring, and analysis of the data was conducted as described below. […] Body temperature and locomotor activity were monitored via a miniature transmitter (Minimitter) surgically placed in the abdomen. The cranial implant consisted of stainless steel screws (2 frontal [+3.9 AP form bregma, ±2.0 ML] and two occipital [-6.4 AP, ±5.5 ML]) for EEG recording. Two Teflon-coated steel wires were positioned under the nuchal trapezoid muscles for EMG recording. All leads were soldered to a miniature connector prior to surgery, and chemically sterilized in Glutarex (3M Co.). The implant assembly was affixed to the skull with dental acrylic. A minimum of three weeks was allowed for recovery.
Each rat was permanently housed in its own individual recording cage located within separate, ventilated compartments of custom-designed stainless steel cabinets. Each Nalgene microisolator cage, which is an individual recording cage, was enhanced with a filter-top riser and swivel-commutator. Food and water were available ad libitum. […] Animals were undisturbed for three days both before and after treatments. In practice, animals were undisturbed during the weekend. Treatments were administered on Monday evening or Tuesday morning, and the animals were again left undisturbed until Friday, when cages were cleaned and the data copied off the computers.
The computers monitored the EEG, EMG, body temperature and non-specific locomotor activity (LMA) via telemetry, and drinking activity from 48 rats simultaneously. The computer classified the arousal state every 10 seconds using pattern-matching algorithms which included behavior-dependent contextual rules. Drinking and LMA were recorded every 10 seconds, while body temperature was recorded every minute.
Therefore, time of treatment is important. By administering the drug at CT-18, which is the peak of the rat's activity dominated period, the natural tendency for the rats to sleep at lights on ([…] clock time or Circadian Time, CT-0) cannot mask the hypnotic activity of the drug. By administering the drug at CT-5 when the propensity for REM sleep is greatest, the drug's effect on REM sleep can be measured more accurately. The activity dominated period begins when the lights are turned off at CT-12 or 15:00 clock time on the Figures.
The drugs and controls were injected intraperitoneally or administered orally in a volume of 1 ml/kg or […], respectively, under dim red illumination for the CT-18 studies or under regular light for the CT-5 studies.
A matched control group, N=20, was selected from a pool of 60 available control candidates. These matched control groups were constructed as follows.

Setting [2] is: administered at CT-18, first few hours after administration.

A word on the IC50: it is the point on the concentration scale where inhibition reaches its midpoint. Low values mean greater potency in that assay, high ones weaker potency in that assay. Molecule `C[C@]12CC[C@@H](O)C[C@@H]1CC[C@@H]1[C@@H]2CC[C@]2(C)[C@@H](CO)CC[C@@H]12` [3α-hydroxy-17b-hydroxymethyl-5α-androstane-] displayed an IC50 in data set [1] of 0.455 µM.
Same read-out and setting: as for `C/C=C1/CC[C@H]2[C@@H]3CC[C@H]4C[C@H](O)CC[C@@H]4[C@H]3CC[C@]12C` [3α-hydroxy-19-nor-5α-pregnan-cis-17(20)-ene], the figure is 0.373 µM.
On the same count and under the same terms, as for `C[C@]12CC[C@@H](O)C[C@@H]1CC[C@@H]1[C@@H]2CC[C@]2(C)[C@@H](C(=O)CSc3ccncc3)CC[C@@H]12` [3α-hydroxy-21-(pyrid-4-ylthio)-5α-pregnan-20-one], the figure is 0.023 µM; as for `COCC(=O)[C@H]1CC[C@H]2[C@@H]3CC[C@@H]4C[C@@](O)(C(F)(F)F)CC[C@@H]4[C@H]3CC[C@]12C` [3α-hydroxy-21-methoxy-3β-trifluoromethyl-5β-19-nor-pregnan-20-one], 0.252 µM.
For `CC/C=C1/CC[C@H]2[C@@H]3CC[C@@H]4C[C@H](O)CC[C@]4(C)[C@H]3CC[C@]12C` [3α-hydroxy-21-methyl-5β-pregnan-17(20)(Z)-ene], the IC50 in data set [1] was 0.217 µM.
The same measure, in the same setting: as for `CCC(=O)[C@H]1CC[C@H]2[C@@H]3CC[C@@H]4C[C@H](O)CC[C@]4(C)[C@H]3CC[C@]12C` [3α-hydroxy-21-methyl-5β-pregnan-20-one], the figure is 0.078 µM; as for `COC[C@@]1(O)CC[C@@]2(C)[C@H](CC[C@@H]3[C@@H]2CC[C@]2(C)[C@@H](C(C)=O)CC[C@@H]32)C1` [3α-hydroxy-30-methoxymethyl-5β-pregnan-20-one], 0.04 µM; as for `CCCCCC#C[C@@]1(O)CC[C@@]2(C)[C@H](CC[C@@H]3[C@@H]2CC[C@]2(C)[C@@H](C(C)=O)CC[C@@H]32)C1` [3β-(1-Heptynyl)-3α-hydroxy-5β-pregnan-20-one], 0.065 µM.
The same measure, in the same setting: for `CCCCC#C[C@@]1(O)CC[C@@]2(C)[C@H](CC[C@@H]3[C@@H]2CC[C@]2(C)[C@@H](C(C)=O)CC[C@@H]32)C1` [3β-(1-Hexynyl)-3α-hydroxy-5β-pregnan-20-one] the value was 0.044 µM; for `CCCCCCC#C[C@@]1(O)CC[C@@]2(C)[C@H](CC[C@@H]3[C@@H]2CC[C@]2(C)[C@@H](C(C)=O)CC[C@@H]32)C1` [3β-(1-Octynyl)-3α-hydroxy-5β-pregnan-20-one], 0.063 µM.
The same measure, in the same setting: as for `CC(=O)[C@H]1CC[C@H]2[C@@H]3CC[C@@H]4C[C@@](O)(C#Cc5ccccc5O)CC[C@]4(C)[C@H]3CC[C@]12C` [3β-(2'-Hydroxyphenyl)ethynyl-3α-hydroxy-5β-pregnan-20-one], the figure is 0.192 µM; as for `CC(=O)c1ccc(C#C[C@@]2(O)CC[C@@]3(C)[C@H](CC[C@@H]4[C@@H]3CC[C@]3(C)[C@@H](C(C)=O)CC[C@@H]43)C2)cc1` [3β-(4'-Acetylphenyl)ethynyl-3α-hydroxy-5β-pregnan-20-one], 0.014 µM.
In turn, `CCOC(=O)c1ccc(C#C[C@@]2(O)CC[C@@]3(C)[C@H](CC[C@@H]4[C@@H]3CC[C@]3(C)[C@@H](C(C)=O)CC[C@@H]43)C2)cc1` [3β-(4'-Carboxyphenyl)ethynyl-3α-hydroxy-5β-pregnan-20-one ethyl ester] registered an IC50 in data set [1] of 0.008 µM. Against the preceding molecule, the IC50 is about 1.8-fold lower.
The same measure, in the same setting: as for `CC(=O)[C@H]1CC[C@H]2[C@@H]3CC[C@H]4C[C@@](O)(CBr)CC[C@]4(C)[C@H]3CC[C@]12C` [3β-(Bromomethyl)-3α-hydroxy-5α-pregnan-20-one], the figure is 0.19 µM.
The same measure, in the same setting: for `C=CCC[C@@]1(O)CC[C@@]2(C)[C@@H](CC[C@@H]3[C@@H]2CC[C@]2(C)[C@@H](C(C)=O)CC[C@@H]32)C1` [3β-(But-3-enyl)-3α-hydroxy-5α-pregnan-20-one] the value was 0.242 µM; for `C=C=CC[C@@]1(O)CC[C@@]2(C)[C@@H](CC[C@@H]3[C@@H]2CC[C@]2(C)[C@@H](C(C)=O)CC[C@@H]32)C1` [3β-(Buta-2,3-dienyl)-3α-hydroxy-5α-pregnan-20-one], 0.347 µM.
In data set [1], `CCOC[C@@]1(O)CC[C@@]2(C)[C@@H](CC[C@@H]3[C@@H]2CC[C@]2(C)[C@@H](C(C)=O)CC[C@@H]32)C1` [3β-(Ethoxymethyl)-3α-hydroxy-5α-pregnan-20-one] showed an IC50 of 0.154 µM. This IC50 lies about 2.3-fold lower than the previous one.
On the same count and under the same terms, as for `CC(=O)[C@H]1CC[C@H]2[C@@H]3CC[C@@H]4C[C@@](O)(C#CCl)CC[C@]4(C)[C@H]3CC[C@]12C` [3β-(chloroethynyl)-3α-hydroxy-5β-pregnan-20-one], the figure is 0.026 µM; as for `C#C[C@@]1(O)CC[C@H]2[C@H](CC[C@@H]3[C@@H]2CC[C@]2(C)/C(=C\C)CC[C@@H]32)C1` [3β-Ethynyl-3α-hydroxy-5β-19-nor-pregn-17(z)-ene], 0.46 µM.
Still for that read-out and setting: as for `C#C[C@@]1(O)CC[C@H]2[C@H](CC[C@@H]3[C@@H]2CC[C@]2(C)[C@@H](C(C)=O)CC[C@@H]32)C1` [3β-Ethynyl-3α-hydroxy-19-nor-5β-pregnan-20-one], the figure is 0.044 µM.
`COc1ccc(C#C[C@@]2(O)CC[C@@]3(C)[C@H](CC[C@@H]4[C@@H]3CC[C@]3(C)[C@@H](C(C)=O)CC[C@@H]43)C2)cc1OC` [3β-[(3',4'-Dimethoxyphenyl)ethynyl] -3α-hydroxy-5/3-pregnan-20-one]: the IC50 in data set [1] was 0.283 µM.
The same measure, in the same setting: for `CC(=O)[C@H]1CC[C@H]2[C@@H]3CC[C@H]4C[C@@](O)(CN=[N+]=[N-])CC[C@]4(C)[C@H]3CC[C@]12C` [3β-azidomethyl-3α-hydroxy-5α-pregnan-20-one] the value was 0.034 µM; for `CC(=O)[C@H]1CC[C@H]2[C@@H]3CC[C@H]4C[C@@](O)(CC#N)CC[C@]4(C)[C@H]3CC[C@]12C` [3β-cyanomethyl-3α-hydroxy-5α-pregnan-20-one], 0.439 µM.
Take `C#C[C@@]1(O)CC[C@@]2(C)[C@@H](CC[C@@H]3[C@@H]2CC[C@]2(C)[C@@H](C(C)=O)CC[C@@H]32)C1` [3β-ethynyl-3α-hydroxy-5α-pregnan-20-one, 3β-Ethynyl-3α-hydroxy-5α-pregnan-20-one]: the REM sleep entry in the data set on rats is listed as “slight REM-interference”. Moreover, the NREM sleep result in the data set on rats (administered at CT-5 or CT-18) is on record as “potent NREM-promoting effect”.
For the molecule `Cc1cccc([C@H](C)c2cnc[nH]2)c1C` [Dexmedetomidine, reference compound], in the data set with rats, the REM sleep result is recorded as “strongly interfered with REM sleep” and the “rebound insomnia / rebound wakefulness / rebound effects” value is “strong rebound effects”.
Regarding `Cc1nnc2n1-c1ccc(Cl)cc1C(c1ccccc1Cl)=NC2` [Triazolam, reference compound], in the data set on rats, the “LMA after the hypnotic action has worn off” value is “reduced body temperature and locomotor activity”; the body temperature result is reported as “affect body temperature; also recorded: reduced body temperature”; the “LMA versus vehicle control” value is reported as “reduced LMA below vehicle control levels”. The “NREM sleep / hypnotic effect” value in the data set with rats (administered at CT-5) is reported as “no hypnotic effect”. In addition, in the data set on rats (setting [2]), the REM sleep entry is listed as “reduced REM sleep”.
Consider `Cc1ccc(-c2nc3ccc(C)cn3c2CC(=O)N(C)C)cc1` [Zolpidem, reference compound], for which, in the data set with rats, the “LMA after the hypnotic action has worn off” value was “continues to depress LMA; also recorded: reduced body temperature and locomotor activity”; the REM sleep result is reported as “strongly interfered with REM sleep”; the body temperature result is “affect body temperature; also recorded: reduced body temperature”; the “rebound insomnia / rebound wakefulness / rebound effects” value is reported as “did not produce rebound insomnia”. Further, in the data set with rats, the “LMA versus vehicle control” value was “reduced LMA below vehicle control levels”. Besides, in the data set with rats (administered at CT-5), the “NREM sleep / hypnotic effect” value was “unable to effectively induce NREM sleep” and the REM sleep result is recorded as “interferes with REM sleep”. Further, the REM sleep entry in the data set on rats (setting [2]) is reported as “reduced REM sleep”.
